# Laboratory results: US9045490B2, “Use of parthenolide derivatives as antileukemic and cytotoxic agents” (University of Kentucky, priority 2003, dated 2015)
# Read-outs that look alike come from different tables or passages of the source.
# Assays:
# [1] = system: primary acute myelogenous leukemia (AML) cells; experiment: Assay for antileukemic activity (Annexin V/7-AAD apoptosis analysis by flow cytometry); format: cell-based; settings: 24 hours of culture
# Method: For apoptosis analysis, one million primary acute myelogenous leukemia (AML) cells were washed with cold PBS and resuspended in 200 microliters of Annexin binding buffer (10 mM HEPES/NaOH pH 7.4; 140 mM NaCl; 2.5 mM CaCl2). Annexin V-FITC (Pharmingen) and 0.25 mg/mL 7-AAD (7-aminoactinomycin D, Molecular Probes, CA) were added and the tubes were incubated at room temperature in the dark for 15 minutes. Cells were then diluted with 200 microliters of Annexin binding buffer and analyzed immediately by flow cytometry. Viable cells were identified as failing to label with Annexin V or 7-AAD. Cells beginning to die label with Annexin V, and as membrane integrity is lost, will also label with 7-AAD. […] Data are normalized to untreated control specimens. The data are in Table 1 for aminoparthenolide derivatives and Table 2 for the salts of some aminoparthenolides.
# [2] = system: breast cancer cell line mdl-231; experiment: Clonogenic assay; format: cell-based; settings: mdl-231, 2 μm concentration (parthenolide: similar dosage ranges)
# [3] = system: human monocyte cell line THP-1; experiment: cDNA array analysis of inflammation genes; format: cell-based
# Method: Total cellular RNA was extracted from the human monocyte cell line THP-1 under three conditions 2 hours after Time 0:
# 1) Control was added at Time 0 […]
# RNA was extracted using RNeasy Min Kit (Qiagen, USA) according to the manufacturer's instructions. The Human Drug Targets for Inflammation and Immunomodulation Q series GE array kit (HS-048-12) was obtained from SuperArray Bioscience Corporation (Frederick, Md.). The kit determines expression of 96 genes that are associated with inflammation. RNA from respective samples was used as a template to generate biotin labeled cDNA probes using GEArray Ampolabelling RT kit (SuperArray, Bioscience Corp., USA). The cDNA probes corresponding to the mRNA population were then denatured and hybridization was carried out in GEHyb solution to nylon membranes spotted with gene specific fragments. Membranes were then washed in 2×SSC, 1% SDS twice for 15 minutes each, followed by 0.1 SSC, 0.5% SDS twice for 15 minutes each. Chemiluminescence was used to visualize the expression levels of each transcript and the results were quantified with the GEArray Analyzer. The change in a given gene transcript was estimated by normalizing the signal intensities with the signal derived from PPIA and with minimum background subtraction.
# [4] = system: normal hematopoietic stem cells; experiment: Human-mouse xenograft: NOD/SCID engraftment of normal donor cells treated in vitro; format: in vivo; settings: 7.5 micromolar in vitro for 12-18 hours, bone marrow analysed after 6-8 weeks (CD45)
# Method: (§1) To assess the effect of parthenolide on primary human stem cell populations, experiments were conducted using transplantation into immune deficient NOD/SCID mice. […] For each experiment, cryopreserved mononuclear cell specimens from normal or AML donors were thawed, and treated in vitro with 7.5 micromolar parthenolide for 12-18 hours. Following culture, 5-10 million cells/animal were injected intravenously into sublethally irradiated (300 Rad) NOD/SCID mice. After 6-8 weeks, animals were sacrificed and bone marrow was analyzed for the presence of human cells using flow cytometry as previously described (Guzman et al., Proc Natl Acad Sci USA 2002; 99: 16220-162253). Human specific antibodies for CD45 were used to assess the level of total engraftment.
# [5] = system: hormone refractory prostate cancer cell line CWR22Rv1; experiment: MTS-PMS cellular proliferation assay; format: cell-based; settings: at 5 μm, CWR22 MTS-PMS assay
# Method: A 96-well U-bottomed plate (Becton Dickinson Labware, Franklin Lakes, N.J.) at a concentration of 5,000 cells per 50 microliters […] of media was incubated in 5% CO2 at 37° C. for 24 hours. Varying compound concentrations in […] of media were added to the media 24 hours later. Colorimetric readings were obtained using the MTS/PMS system and an ELISA plate reader, after 48 hours of exposure to DMAPT. The readings obtained for each concentration tested were from an average of eight wells. Each experiment was expressed as a percentage of the solvent control and completed at least three times with consistent results. The results presented are an average of three experiments. The hormone refractory prostate cancer cell line CWR22Rv1 was treated with increasing concentrations of parthenolide and DMAPT. for three hours Both parthenolide and DMAPT reduced cellular proliferation by 50% at 5 μm in the CWR22 MTS-PMS assay. Cellular proliferation was also measured in the MTS-PMS assay using four lung cancer cell lines treated with parthenolide and derivatives PIPT ((11S,11,13-dihydro,13-(piperidin-1-yl)parthenolide), 4MEPT (11S,11,13-dihydro,13-(4-methylpiperidin-1-yl)parthenolide) and MAPT (11S,11,13-dihydro,13-dimethylaminoparthenolide). Parthenolide and its derivatives inhibited cellular proliferation in a dose dependent manner between 2 and 10 μM with 70% inhibition at 10 μM in A549, 50% in H460, 40% in H-23 and 40% in H522 (FIGS. 2-5).
# [6] = system: breast cancer cell line 436; experiment: Clonogenic assay; format: cell-based; settings: 436 cells, 2 μm concentration (parthenolide: similar dosage ranges)
# [7] = system: AML cells (AML stem cell compartment); experiment: Human-mouse xenograft: NOD/SCID engraftment of AML cells treated in vitro; format: in vivo, human cells in NOD/SCID mice; settings: 7.5 micromolar in vitro for 12-18 hours, bone marrow analysed after 6-8 weeks (CD45)
# Method: as §1
# [8] = system: breast cancer cell line hbl-100; experiment: Clonogenic assay; format: cell-based; settings: hbl-100, 2 μm concentration (parthenolide: similar dosage ranges)
# [9] = Oral bioavailability in mice: plasma level by LC-MS; format: in vivo; settings: mouse, 40 mg/kg oral, read-out: plasma level one hour after oral gavage
# Method: Preliminary in vivo work was conducted to determine the bioavailability and toxicity of this agent in mice.
# [10] = DMAPT (10 micromoles) pre-treatment for 2 hours then 1 hour treatment of LPS (10 nM)
structure (smiles),measurement,setting,value
"C/C1=C\CC[C@@]2(C)O[C@@H]2[C@H]2OC(=O)[C@H](CN(C)C)[C@@H]2CC1 [DMAPT, 11S,11,13-Dihydro,13-dimethylaminoparthenolide]",Antileukemic activity,[1]; 5 μM,"5 μM, 31%"
same,Antileukemic activity,"[1]; 10 μM, normalized to untreated control","10 μM, 90%"
same,Antileukemic activity,[1]; 20 μM,"20 μM, 95%"
same,inhibition of proliferation,[2],almost complete inhibition
same,% Change of Genes: Intercellular Adhesion Molecule 1,[3]; [10],58%
same,% Change of Genes: Nitric oxide synthase 2A (inducible),[3]; [10],48%
same,"% Change of Genes: Tumor necrosis factor (ligand) superfamily, member 5",[3]; [10],23%
same,"transcription of tumor necrosis factor (TNF), relative to control","[3]; pretreatment with DMAPT, then LPS",2 % of control
same,level of engraftment of treated normal cells in NOD/SCID mice,[4],no significant effects
same,reduction of cellular proliferation,[5],50%
same,inhibition of proliferation,[6],almost complete inhibition
same,level of engraftment of treated AML cells in NOD/SCID mice,[7],strong reduction
same,inhibition of proliferation,[8],almost complete inhibition
same,concentration at 1 h,"[9]; LC-MS, average of 5 mice",~2500 ng/mL
same,concentration at 1 h,[9]; conversion of the ng/mL value,8 µM
